From US10405547B2, “Substituted cyclic amides as herbicides” (FMC Corporation, priority 2015, dated 2019)

Columns and labels:
Assay type in all cases: in vivo
[1] = tested on: galium (catchweed bedstraw, Galium aparine); assay: Test A postemergence, galium; settings: visual injury, 0 to 100 scale (0 no effect, 100 complete control), approximately 10 days
In short: (§1)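 Greenhouse assay; ~10 d; visual injury vs untreated control, scored 0 = no effect through 100 = complete control. Post-emergent seedlings at one–two leaves; pre-emergent seeds in loam/sand given a directed soil spray.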

[2] = tested on: blackgrass (Alopecurus myosuroides); assay: Test A postemergence, blackgrass; settings: visual injury, 0 to 100 scale (0 no effect, 100 complete control), approximately 10 days
In short: as §1

[3] = tested on: foxtail, giant (Setaria faberii); assay: Test A postemergence, giant foxtail; settings: visual injury, 0 to 100 scale (0 no effect, 100 complete control), approximately 10 days
In short: as §1

[4] = tested on: barnyardgrass (Echinochloa crus-galli); assay: Test B flooded paddy test, barnyardgrass; settings: 250 g ai/ha, applied to paddy water, visual rating after 13 to 15 days, scale 0 (no effect) to 100 (complete control)
In short: (§2)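 Ratings were visual and made relative to untreated controls after 13 to 15 greenhouse days.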

[5] = tested on: wheat (Triticum aestivum); assay: Test A postemergence, wheat; settings: visual injury, 0 to 100 scale (0 no effect, 100 complete control), approximately 10 days
In short: as §1

corn (Zea mays) = assay: Test A postemergence, corn; settings: visual injury, 0 to 100 scale (0 no effect, 100 complete control), approximately 10 days
In short: as §1

[6] = tested on: pigweed (Amaranthus retroflexus); assay: Test A postemergence, pigweed; settings: visual injury, 0 to 100 scale (0 no effect, 100 complete control), approximately 10 days
In short: as §1

[7] = tested on: foxtail, giant (Setaria faberii); assay: Test A preemergence, giant foxtail; settings: 0 to 100 scale (0 no effect, 100 complete control)
In short: as §1

[8] = tested on: barnyardgrass (Echinochloa crus-galli); assay: Test A preemergence, barnyardgrass; settings: 0 to 100 scale (0 no effect, 100 complete control)
In short: as §1

[9] = tested on: ragweed (common ragweed, Ambrosia elatior); assay: Test A postemergence, ragweed; settings: visual injury, 0 to 100 scale (0 no effect, 100 complete control), approximately 10 days
In short: as §1

[10] = tested on: sedge, umbrella (small-flower umbrella sedge, Cyperus difformis); assay: Test B flooded paddy test, umbrella sedge; settings: 250 g ai/ha, applied to paddy water, visual rating after 13 to 15 days, scale 0 (no effect) to 100 (complete control)
In short: as §2

[11] = tested on: ducksalad (Heteranthera limosa); assay: Test B flooded paddy test, ducksalad; settings: 250 g ai/ha, applied to paddy water, visual rating after 13 to 15 days, scale 0 (no effect) to 100 (complete control)
In short: as §2

[12] = tested on: ryegrass, Italian (Lolium multiflorum); assay: Test A postemergence, Italian ryegrass; settings: visual injury, 0 to 100 scale (0 no effect, 100 complete control), approximately 10 days
In short: as §1

kochia (Kochia scoparia) [13] = assay: Test A postemergence, kochia; settings: visual injury, 0 to 100 scale (0 no effect, 100 complete control), approximately 10 days
In short: as §1

[14] = tested on: ryegrass, Italian (Lolium multiflorum); assay: Test A preemergence, Italian ryegrass; settings: 0 to 100 scale (0 no effect, 100 complete control)
In short: as §1

rice (Oryza sativa) = assay: Test B flooded paddy test, rice; settings: 250 g ai/ha, applied to paddy water, visual rating after 13 to 15 days, scale 0 (no effect) to 100 (complete control)
In short: as §2

[15] = tested on: pigweed (Amaranthus retroflexus); assay: Test A preemergence, pigweed; settings: 0 to 100 scale (0 no effect, 100 complete control)
In short: as §1

[16] = tested on: ragweed (common ragweed, Ambrosia elatior); assay: Test A preemergence, ragweed; settings: 0 to 100 scale (0 no effect, 100 complete control)
In short: as §1

[17] = tested on: barnyardgrass (Echinochloa crus-galli); assay: Test A postemergence, barnyardgrass; settings: visual injury, 0 to 100 scale (0 no effect, 100 complete control), approximately 10 days
In short: as §1

kochia (Kochia scoparia) [18] = assay: Test A preemergence, kochia; settings: 0 to 100 scale (0 no effect, 100 complete control)
In short: as §1

Structure (SMILES) | Plant response rating, Galium ([1]; 125 g ai/ha) | Plant response rating, Galium ([1]; 500 g ai/ha) | Plant response rating, Blackgrass ([2]; 125 g ai/ha) | Plant response rating, Blackgrass ([2]; 500 g ai/ha) | Plant response rating, Foxtail, Giant ([3]; 125 g ai/ha) | Plant response rating, Foxtail, Giant ([3]; 500 g ai/ha) | Plant response rating, Barnyardgrass (Flood) [4] | Plant response rating, Wheat ([5]; 125 g ai/ha) | Plant response rating, Wheat ([5]; 500 g ai/ha) | Plant response rating, Corn (corn (Zea mays); 125 g ai/ha) | Plant response rating, Corn (corn (Zea mays); 500 g ai/ha) | Plant response rating, Pigweed ([6]; 125 g ai/ha) | Plant response rating, Pigweed ([6]; 500 g ai/ha) | Plant response rating, Foxtail, Giant ([7]; 125 g ai/ha) | Plant response rating, Foxtail, Giant ([7]; 500 g ai/ha) | Plant response rating, Barnyardgrass ([8]; 125 g ai/ha) | Plant response rating, Barnyardgrass ([8]; 500 g ai/ha) | Plant response rating, Ragweed ([9]; 125 g ai/ha) | Plant response rating, Ragweed ([9]; 500 g ai/ha) | Plant response rating, Sedge, Umbrella (Flood) [10] | other results
CN1CC(c2cccc(Oc3ccc(F)cc3)c2)C(C(=O)Nc2cccc(F)c2F)C1=O (single isomer, unassigned) [Compound 46] | 60 | 70 | 0 | 30 | 70 | 80 | 0 | 0 | 20 | 40 | 50 | 50 | 70 | 90 | 90 | 70 | 80 | 0 | 0 | 0 | Plant response rating, Ducksalad (Flood) [11]: 30; Plant response rating, Ryegrass, Italian ([12]; 125 g ai/ha): 0; Plant response rating, Ryegrass, Italian ([12]; 500 g ai/ha): 30; Plant response rating, Kochia (kochia (Kochia scoparia) [13]; 125 g ai/ha): 40; Plant response rating, Kochia (kochia (Kochia scoparia) [13]; 500 g ai/ha): 60; Plant response rating, Ryegrass, Italian ([14]; 125 g ai/ha): 20; Plant response rating, Ryegrass, Italian ([14]; 500 g ai/ha): 80; Plant response rating, Rice (Flood) (rice (Oryza sativa)): 0; Plant response rating, Pigweed ([15]; 125 g ai/ha): 40; Plant response rating, Pigweed ([15]; 500 g ai/ha): 70; Plant response rating, Ragweed ([16]; 125 g ai/ha): 0; Plant response rating, Ragweed ([16]; 500 g ai/ha): 30; Plant response rating, Barnyardgrass ([17]; 125 g ai/ha): 90; Plant response rating, Barnyardgrass ([17]; 500 g ai/ha): 90; Plant response rating, Kochia (kochia (Kochia scoparia) [18]; 125 g ai/ha): 0; Plant response rating, Kochia (kochia (Kochia scoparia) [18]; 500 g ai/ha): 20
O=C1NCC(c2cccc(OCC3OCCO3)c2)C1C(=O)Nc1cccc(F)c1F (stereo not drawn) [Compound 7] | 20 | 40 | 0 | 40 | 20 | 70 | 0 | 0 | 40 | 0 | 20 | 0 | 0 | 90 | 90 | 60 | 90 | 0 | 20 | 0 | Plant response rating, Ducksalad (Flood) [11]: 75; Plant response rating, Ryegrass, Italian ([12]; 125 g ai/ha): 0; Plant response rating, Ryegrass, Italian ([12]; 500 g ai/ha): 20; Plant response rating, Kochia (kochia (Kochia scoparia) [13]; 125 g ai/ha): 0; Plant response rating, Kochia (kochia (Kochia scoparia) [13]; 500 g ai/ha): 0; Plant response rating, Ryegrass, Italian ([14]; 125 g ai/ha): 30; Plant response rating, Ryegrass, Italian ([14]; 500 g ai/ha): 30; Plant response rating, Rice (Flood) (rice (Oryza sativa)): 0; Plant response rating, Pigweed ([15]; 125 g ai/ha): 60; Plant response rating, Pigweed ([15]; 500 g ai/ha): 60; Plant response rating, Ragweed ([16]; 125 g ai/ha): 0; Plant response rating, Ragweed ([16]; 500 g ai/ha): 0; Plant response rating, Barnyardgrass ([17]; 125 g ai/ha): 40; Plant response rating, Barnyardgrass ([17]; 500 g ai/ha): 70; Plant response rating, Kochia (kochia (Kochia scoparia) [18]; 125 g ai/ha): 0; Plant response rating, Kochia (kochia (Kochia scoparia) [18]; 500 g ai/ha): 0
O=C1NCC(c2cccc(OCC3CC3)c2)C1C(=O)Nc1cccc(F)c1F (stereo not drawn) [Compound 12] | 0 | 50 | 0 | 60 | 70 | 90 | 0 | 0 | 50 | 0 | 60 | 0 | 20 | 90 | 90 | 90 | 90 | 30 | 30 | 0 | Plant response rating, Ducksalad (Flood) [11]: 20; Plant response rating, Ryegrass, Italian ([12]; 125 g ai/ha): 20; Plant response rating, Ryegrass, Italian ([12]; 500 g ai/ha): 50; Plant response rating, Kochia (kochia (Kochia scoparia) [13]; 125 g ai/ha): 0; Plant response rating, Kochia (kochia (Kochia scoparia) [13]; 500 g ai/ha): 20; Plant response rating, Ryegrass, Italian ([14]; 125 g ai/ha): 0; Plant response rating, Ryegrass, Italian ([14]; 500 g ai/ha): 20; Plant response rating, Rice (Flood) (rice (Oryza sativa)): 0; Plant response rating, Pigweed ([15]; 125 g ai/ha): 0; Plant response rating, Pigweed ([15]; 500 g ai/ha): 30; Plant response rating, Ragweed ([16]; 125 g ai/ha): 0; Plant response rating, Ragweed ([16]; 500 g ai/ha): 0; Plant response rating, Barnyardgrass ([17]; 125 g ai/ha): 70; Plant response rating, Barnyardgrass ([17]; 500 g ai/ha): 90; Plant response rating, Kochia (kochia (Kochia scoparia) [18]; 125 g ai/ha): 0; Plant response rating, Kochia (kochia (Kochia scoparia) [18]; 500 g ai/ha): 40
CON=Cc1cccc(C2CN(C)C(=O)C2C(=O)Nc2ccccc2F)c1 (stereo not drawn) [Compound 53, N-(2-fluorophenyl)-4-[3-[(methoxyimino)methyl]phenyl]-1-methyl-2-oxo-3-pyrrolidinecarboxamide] | 0 | 30 | 0 | 20 | 80 | 90 | 30 | 0 | 0 | 0 | 0 | 0 | 0 | 90 | 90 | 90 | 90 | 0 | 0 | 0 | Plant response rating, Ducksalad (Flood) [11]: 70; Plant response rating, Ryegrass, Italian ([12]; 125 g ai/ha): 0; Plant response rating, Ryegrass, Italian ([12]; 500 g ai/ha): 0; Plant response rating, Kochia (kochia (Kochia scoparia) [13]; 125 g ai/ha): 0; Plant response rating, Kochia (kochia (Kochia scoparia) [13]; 500 g ai/ha): 0; Plant response rating, Ryegrass, Italian ([14]; 125 g ai/ha): 0; Plant response rating, Ryegrass, Italian ([14]; 500 g ai/ha): 0; Plant response rating, Rice (Flood) (rice (Oryza sativa)): 0; Plant response rating, Pigweed ([15]; 125 g ai/ha): 0; Plant response rating, Pigweed ([15]; 500 g ai/ha): 0; Plant response rating, Ragweed ([16]; 125 g ai/ha): 0; Plant response rating, Ragweed ([16]; 500 g ai/ha): 0; Plant response rating, Barnyardgrass ([17]; 125 g ai/ha): 70; Plant response rating, Barnyardgrass ([17]; 500 g ai/ha): 90; Plant response rating, Kochia (kochia (Kochia scoparia) [18]; 125 g ai/ha): 60; Plant response rating, Kochia (kochia (Kochia scoparia) [18]; 500 g ai/ha): 70
